Each compound was assayed against full-length human PIKFYVE (GST-PIKFYVE) (Homo sapiens (Human), UniProt Q9Y2I7, L932S/Q1183K/Q995L/S1033A/S696N/T998S) (assay: PIKfyve biochemical assay (ADP-Glo Kinase assay, Carna Biosciences)). Conditions: ADP-Glo, full-length human PIKFYVE; read-out: hPIKfyve IC50.
Sequence of full-length human PIKFYVE (GST-PIKFYVE) (Q9Y2I7 whole entry S696N/L932S/Q995L/T998S/S1033A/Q1183K, the tested form may be a part): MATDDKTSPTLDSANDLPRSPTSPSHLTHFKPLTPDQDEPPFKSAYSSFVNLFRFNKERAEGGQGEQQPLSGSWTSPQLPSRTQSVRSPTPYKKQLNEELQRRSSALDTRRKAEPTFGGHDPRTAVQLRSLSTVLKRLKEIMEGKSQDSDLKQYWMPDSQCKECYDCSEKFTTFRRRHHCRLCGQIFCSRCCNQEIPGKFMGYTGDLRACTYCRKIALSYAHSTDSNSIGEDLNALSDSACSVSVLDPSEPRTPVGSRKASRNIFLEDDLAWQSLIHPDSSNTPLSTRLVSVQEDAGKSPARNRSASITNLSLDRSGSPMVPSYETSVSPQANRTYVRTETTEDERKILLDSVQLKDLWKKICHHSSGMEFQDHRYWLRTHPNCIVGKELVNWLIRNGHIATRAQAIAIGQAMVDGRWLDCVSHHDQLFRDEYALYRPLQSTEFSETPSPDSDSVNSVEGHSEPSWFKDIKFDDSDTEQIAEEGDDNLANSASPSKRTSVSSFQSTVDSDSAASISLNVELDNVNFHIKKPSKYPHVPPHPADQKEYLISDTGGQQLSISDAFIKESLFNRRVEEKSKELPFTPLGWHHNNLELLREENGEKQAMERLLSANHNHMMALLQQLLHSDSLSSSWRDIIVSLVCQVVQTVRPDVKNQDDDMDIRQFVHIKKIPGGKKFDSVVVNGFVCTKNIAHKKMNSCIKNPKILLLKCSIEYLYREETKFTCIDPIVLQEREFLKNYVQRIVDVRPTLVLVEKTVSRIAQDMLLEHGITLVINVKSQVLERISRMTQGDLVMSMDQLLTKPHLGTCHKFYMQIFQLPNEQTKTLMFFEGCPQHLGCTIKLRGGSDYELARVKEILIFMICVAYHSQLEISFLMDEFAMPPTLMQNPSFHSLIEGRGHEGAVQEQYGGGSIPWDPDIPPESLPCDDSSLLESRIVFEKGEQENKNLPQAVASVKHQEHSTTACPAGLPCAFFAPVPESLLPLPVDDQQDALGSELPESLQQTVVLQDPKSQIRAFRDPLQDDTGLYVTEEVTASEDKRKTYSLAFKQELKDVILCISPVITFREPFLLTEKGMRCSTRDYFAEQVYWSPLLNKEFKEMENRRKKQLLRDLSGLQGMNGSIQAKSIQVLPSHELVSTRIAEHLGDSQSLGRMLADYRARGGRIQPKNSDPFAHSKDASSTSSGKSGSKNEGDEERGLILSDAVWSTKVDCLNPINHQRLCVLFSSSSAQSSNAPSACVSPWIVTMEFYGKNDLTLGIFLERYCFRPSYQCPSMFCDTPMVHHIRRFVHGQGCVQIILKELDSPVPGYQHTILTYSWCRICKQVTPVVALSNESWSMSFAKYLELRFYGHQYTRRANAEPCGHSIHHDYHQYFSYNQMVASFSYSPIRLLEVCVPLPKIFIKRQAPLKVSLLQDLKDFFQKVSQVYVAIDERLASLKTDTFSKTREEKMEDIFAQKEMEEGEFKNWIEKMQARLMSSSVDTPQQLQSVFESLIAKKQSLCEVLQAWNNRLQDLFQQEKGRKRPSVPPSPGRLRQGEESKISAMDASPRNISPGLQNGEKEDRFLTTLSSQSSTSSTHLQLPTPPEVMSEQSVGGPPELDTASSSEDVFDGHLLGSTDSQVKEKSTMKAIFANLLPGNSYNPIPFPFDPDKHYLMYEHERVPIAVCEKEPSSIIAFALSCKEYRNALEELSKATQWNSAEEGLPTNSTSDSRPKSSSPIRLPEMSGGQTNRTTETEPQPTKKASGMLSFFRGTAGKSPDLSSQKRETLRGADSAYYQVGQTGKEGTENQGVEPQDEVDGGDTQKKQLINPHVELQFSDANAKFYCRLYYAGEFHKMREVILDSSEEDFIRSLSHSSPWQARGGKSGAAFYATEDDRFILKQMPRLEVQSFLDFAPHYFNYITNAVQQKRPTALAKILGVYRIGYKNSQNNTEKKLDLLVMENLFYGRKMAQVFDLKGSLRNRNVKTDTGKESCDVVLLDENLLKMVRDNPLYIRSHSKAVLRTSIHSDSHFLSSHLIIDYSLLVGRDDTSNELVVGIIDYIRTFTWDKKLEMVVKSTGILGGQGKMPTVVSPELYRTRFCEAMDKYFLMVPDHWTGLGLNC
Description: PIKfyve Biochemical Assay. The biochemical PIKFyve inhibition assays were run by Carna Biosciences according to proprietary methodology based on the Promega ADP-Glo™ Kinase assay. A full-length human PIKFYVE [1-2098(end) amino acids and S696N, L932S, Q995L, T998S, S1033A and Q1183K of the protein having the sequence set forth in NCBI Reference Sequence No. NP_055855.2] was expressed as N-terminal GST-fusion protein (265 kDa) using baculovirus expression system. GST-PIKFYVE was purified by using glutathione sepharose chromatography and used in an ADP-Glo™ Kinase assay (Promega). Reactions were set up by adding the test compound solution, substrate solution, ATP solution and kinase solution, each at 4× final concentrations. Reactions were prepared with assay buffer (50 mM MOPS, 1 mM DTT, pH7.2), mixed, and incubated in black 384 well polystyrene plates for 1 hour at room temperature. ADP-Glo™ reagent was then added for 40 minutes, followed by kinase detection reagent for an additional 40 minutes. The kinase activity was evaluated by detecting relative light units on a luminescence plate reader. Samples were run in duplicate from 10 μM to 3 nM. […] IC50 values were calculated from concentration vs % inhibition curves by fitting to a four-parameter logistic curve.
The biochemical PIKFyve inhibition assays were run by Carna Biosciences according to proprietary methodology based on the Promega ADP-Glo™ Kinase assay. A full-length human PIKFYVE [1-2098(end) amino acids and S696N, L932S, Q995L, T998S, S1033A and Q1183K of accession number NP_055855.2] was expressed as N-terminal GST-fusion protein (265 kDa) using baculovirus expression system. GST-PIKFYVE was purified by using glutathione sepharose chromatography and used in an ADP-Glo™ Kinase assay (Promega).
Reactions were set up by adding the test compound solution, substrate solution, ATP solution and kinase solution, each at 4× final concentrations. Reactions were prepared with assay buffer (50 mM MOPS, 1 mM DTT, pH7.2), mixed, and incubated in black 384 well polystyrene plates for 1 hour at room temperature. ADP-Glo™ reagent was then added for 40 minutes, followed by kinase detection reagent for an additional 40 minutes. The kinase activity was evaluated by detecting relative light units on a luminescence plate reader. Samples were run in duplicate from 10 uM to 3 nM. […] IC50 values were calculated from concentration vs % inhibition curves by fitting to a four-parameter logistic curve.
Work on Cc1cccc(CCNc2nc(N3CCOCC3)c3ncccc3n2)c1 [compound 23, N-(3-methylphenethyl)-4-morpholinopyrido[3,2-d]pyrimidin-2-amine] yielded an IC50 of 100 to 1000 nM. With Oc1cc(-c2ccccc2)nn1-c1nc(N2CCOCC2)c2cccnc2n1 [compound 25, 2-(4-morpholinopyrido[2,3-d]pyrimidin-2-yl)-5-phenyl-2,4-dihydro-3H-pyrazol-3-one] the IC50 was 1000 to 10000 nM. In the case of Oc1cc(-c2ccccc2)nn1-c1nc(N2CCOCC2)c2ncccc2n1 [compound 27, 1-(4-morpholinopyrido[3,2-d]pyrimidin-2-yl)-3-phenyl-1H-pyrazol-5-ol], the IC50 is reported as 10 to 100 nM. O=C1N(c2cccc(F)c2)CCN1c1nc(N2CCOCC2)c2ncccc2n1 [compound 28, 1-(3-fluorophenyl)-3-(4-morpholinopyrido[3,2-d]pyrimidin-2-yl)imidazolidin-2-one] showed an IC50 of 1000 to 10000 nM. O=C1N(c2ccccc2)CCN1c1nc(N2CCOCC2)c2ncccc2n1 [compound 29, 1-(4-morpholinopyrido[3,2-d]pyrimidin-2-yl)-3-phenyl-imidazolidin-2-one] was tested, and the IC50 was 1000 to 10000 nM. Compound O=C1N(c2nc(N3CCOCC3)c3ncccc3n2)CCN1C1CCCC1 [compound 30, 1-cyclopentyl-3-(4-morpholinopyrido[3,2-d]pyrimidin-2-yl)imidazolidin-2-one] has an IC50 of 1000 to 10000 nM. For CCn1c(-c2ccccc2)nn(-c2nc(N3CCOCC3)c3ncccc3n2)c1=O [compound 31, 4-ethyl-2-(4-morpholinopyrido[3,2-d]pyrimidin-2-yl)-5-phenyl-1,2,4-triazol-3-one], the IC50 was 1000 to 10000 nM. In the case of Cn1c(-c2ccccc2)nn(-c2nc(N3CCOCC3)c3ncccc3n2)c1=O [compound 32, 4-methyl-2-(4-morpholinopyrido[3,2-d]pyrimidin-2-yl)-5-phenyl-1,2,4-triazol-3-one], the IC50 is reported as 1000 to 10000 nM. CC(C)(C)OC(=O)N1CCC(c2nccc(-c3nc(N4CCOCC4)c4ncccc4n3)n2)CC1 [compound 33, tert-butyl 4-[4-(4-morpholinopyrido[3,2-d]pyrimidin-2-yl)pyrimidin-2-yl]piperidine-1-carboxylate] gave an IC50 of 1000 to 10000 nM. Work on c1cnc2c(N3CCOCC3)nc(-c3ccnc(N4CCNCC4)n3)nc2c1 [compound 34, 4-[2-(2-piperazin-1-ylpyrimidin-4-yl)pyrido[3,2-d]pyrimidin-4-yl]morpholine] yielded an IC50 of 1000 to 10000 nM. With c1cnc2c(N3CCOCC3)nc(-c3ccnc(C4CCOCC4)n3)nc2c1 [compound 35, 4-[2-(2-tetrahydropyran-4-ylpyrimidin-4-yl)pyrido[3,2-d]pyrimidin-4-yl]morpholine] the IC50 was 1000 to 10000 nM. In the case of c1cnc2c(N3CCOCC3)nc(-c3ccnc(C4CCNCC4)n3)nc2c1 [compound 37, 4-[2-[2-(4-piperidyl)pyrimidin-4-yl]pyrido[3,2-d]pyrimidin-4-yl]morpholine], the IC50 is reported as 1000 to 10000 nM. For CN1CCC(c2nccc(-c3nc(N4CCOCC4)c4ncccc4n3)n2)CC1 [compound 38, 4-[2-[2-(1-methyl-4-piperidyl)pyrimidin-4-yl]pyrido[3,2-d]pyrimidin-4-yl]morpholine], the IC50 was 1000 to 10000 nM. In the case of c1cnc2c(N3CCOCC3)nc(-n3ccc(C4CCNCC4)n3)nc2c1 [compound 42, 4-[2-[3-(4-piperidyl)pyrazol-1-yl]pyrido[3,2-d]pyrimidin-4-yl]morpholine], the IC50 is reported as 1000 to 10000 nM. Work on c1cnc2c(N3CCOCC3)nc(-n3ccc(C4CCCNC4)n3)nc2c1 (centres unmarked) [compound 43, 4-(2-(3-(piperidin-3-yl)-1H-pyrazol-1-yl)pyrido[3,2-d]pyrimidin-4-yl)morpholine] yielded an IC50 of 1000 to 10000 nM. CN1CCCC(c2ccn(-c3nc(N4CCOCC4)c4ncccc4n3)n2)C1 (centres unmarked) [compound 44, 4-(2-(3-(1-methylpiperidin-3-yl)-1H-pyrazol-1-yl)pyrido[3,2-d]pyrimidin-4-yl)morpholine] was tested, and the IC50 was 1000 to 10000 nM. c1cnc2c(N3CCOCC3)nc(-n3ccc(C4CCOCC4)n3)nc2c1 [compound 45, 4-(2-(3-(tetrahydro-2H-pyran-4-yl)-1H-pyrazol-1-yl)pyrido[3,2-d]pyrimidin-4-yl)morpholine] was tested, and the IC50 was 1000 to 10000 nM. Work on c1ccc(-c2ccn(-c3nc(N4CCOCC4)c4cnccc4n3)n2)cc1 [compound 46, 4-(2-(3-phenyl-1H-pyrazol-1-yl)pyrido[4,3-d]pyrimidin-4-yl)morpholine] yielded an IC50 of 1000 to 10000 nM. For c1cnc2c(N3CCOCC3)nc(-n3ccc(C4CCCNC4)n3)nc2c1 (centres unmarked) [compound 48], the IC50 was 1000 to 10000 nM. With c1cnc2c(N3CCOCC3)nc(-c3ccnc(N4CCOCC4)n3)nc2c1 [compound 51, 4-[4-(4-morpholinopyrido[3,2-d]pyrimidin-2-yl)pyrimidin-2-yl]morpholine] the IC50 was 1000 to 10000 nM. CC(C)(C)OC(=O)N1CCN(c2nccc(-c3nc(N4CCOCC4)c4ncccc4n3)n2)CC1 [compound 55, tert-butyl 4-[4-(4-morpholinopyrido[3,2-d]pyrimidin-2-yl)pyrimidin-2-yl]piperazine-1-carboxylate] gave an IC50 of 1000 to 10000 nM. c1cncc(Cc2nc(N3CCOCC3)c3ncccc3n2)c1 [compound 72] was tested, and the IC50 was 10 to 100 nM. Work on O=C(c1cccnc1)c1nc(N2CCOCC2)c2ncccc2n1 [compound 73] yielded an IC50 of 100 to 1000 nM. c1coc(-c2nc(N3CCOCC3)c3ncccc3n2)c1 [compound 74] gave an IC50 of 100 to 1000 nM. Compound c1cncc(Oc2nc(N3CCOCC3)c3ncccc3n2)c1 [compound 75] has an IC50 of 10 to 100 nM. In the case of Cc1cccc(CCNc2nc(N3CCOCC3)c3ncc(C(O)c4cccnc4)cc3n2)c1 (centres unmarked) [compound 76], the IC50 is reported as 100 to 1000 nM. Compound Cc1cccc(CCNc2nc(N3CCOCC3)c3ncc(C(=O)c4cccnc4)cc3n2)c1 [compound 77] has an IC50 of 100 to 1000 nM. Compound Cc1cccc(CCNc2nc(N3CCOCC3)c3ncc(Cc4cccnc4)cc3n2)c1 [compound 78] has an IC50 of 100 to 1000 nM. Clc1nc(N2CCOCC2)c2ncc(Cc3cccnc3)cc2n1 [compound 82] gave an IC50 of 1000 to 10000 nM. With Fc1cccc(Nc2nc(N3CCOCC3)c3ncc(Cc4cccnc4)cc3n2)c1 [compound 83] the IC50 was 1000 to 10000 nM. For c1ccc(Oc2nc(N3CCOCC3)c3ncc(Cc4cccnc4)cc3n2)cc1 [compound 84], the IC50 was 1000 to 10000 nM. In the case of c1ccc(-c2nccc(-c3nc(N4CCOCC4)c4ncc(Cc5cccnc5)cc4n3)n2)cc1 [compound 85], the IC50 is reported as 100 to 1000 nM. For Fc1cccc(-c2nccc(-c3nc(N4CCOCC4)c4ncc(Cc5cccnc5)cc4n3)n2)c1 [compound 86], the IC50 was 100 to 1000 nM. For c1ccc(Nc2nc(N3CCOCC3)c3ncc(C4CCCO4)cc3n2)cc1 (centres unmarked) [compound 87], the IC50 was 100 to 1000 nM. In the case of c1ccc(Oc2nc(N3CCOCC3)c3ncc(C4CCCO4)cc3n2)cc1 (centres unmarked) [compound 88], the IC50 is reported as 1000 to 10000 nM.
